Data published in patent US20240423988A1, “Improvement of Tumor Immunogenicity by Means of Splicing-Controlling Compound” (Kyoto University, priority 2021, published 2024).

Legend:
[1] = tested on: various murine cancer cell lines (LLC, Pan02, WEHI3, CT26, EG7, B16, MC38); assay: RNA-seq analysis of splice-neoantigen producing events in various murine cancer cell lines; assay type: cell-based
Protocol: [FIG. 5-2] Continuation of FIG. 5. D and E: RT-PCR analysis for splice-neoantigen coding forms (splice-NA forms) in MC38 cells treated with 10 µM Compound 1 or vehicle control (0.1% DMSO) for 6 hours. Actb served as a loading control. * represents p<0.05, ** represents p<0.01, and *** represents p<0.001. F: Splice-neoantigen producing rates calculated from RNA-seq data (n=3 biological replicates) are indicated as the APSI (Compound 1-DMSO). All data are shown as the mean±SEM. All experiments were performed at least twice. Statistical significance was determined using unpaired Student's t-test for (B) and (E).
Then, whether the Compound 1-induced splice-neoantigens are shared across cancer type was examined using murine lung carcinoma LLC, pancreatic ductal adenocarcinoma Pan02, leukemia WEHI3, colorectal adenocarcinoma CT26, lymphoma EG7, and skin melanoma B16 cells.
The effects of Compound 2 on RNA splicing events (splicing alterations) producing the aforementioned six splice-neoantigens in various murine cancer cell lines were investigated through RNA-Seq analysis in the same manner as in FIG. 5-2F, except that Compound 1 was replaced with Compound 2 (FIG. 8).

tumor cells = details: cited from earlier work
CD8^+ T cells = assay: IFN-γ ELISpot assay; assay type: cell-based; details: splenocytes of vaccinated mice co-cultured with peptide-pulsed BMDCs
Protocol: The 22 splice-neoantigen candidates and a melanoma antigen peptide, tyrosinase-related protein 2 (TRP2) 180-188, serving as a positive control, were synthesized. […] mice were vaccinated twice with the synthesized peptides in the presence of Poly(I:C) as an adjuvant. Then, splenocytes were prepared from the vaccinated mice and co-cultured with peptide-pulsed bone marrow-derived dendritic cells (BMDCs) for 24 hours, and the activation of CD8^+ T cells was evaluated using an IFN-γ ELISpot assay (FIG. 5-1A).
Eight-week-old female C57BL/6N mice were subcutaneously injected with 100 μg of synthesized peptides (Genscript Japan) and 50 μg of poly(I:C) formulated in PBS (5 peptides/mouse) on days 0 and 7. H2-K^b TRP-2180-188 peptide (MBL International, Woburn, MA) was used as a positive control. Mice were sacrificed 12 days after the initial injection, and splenocytes were isolated. As stimulators, bone marrow-derived dendritic cells (BMDCs) were generated as described previously, with some modifications. Briefly, bone marrow cells were isolated from femurs of the 8-week-old female C57BL/6N mice through centrifugation on day 2. Cells were passed through a 70-um cell strainer and seeded in 10-cm petri dishes with RPMI1640 containing 10% FBS, 100 U/mL P/S, 2 mM L-glutamine, 50 μM 2-ME, and 20 ng/ml Gm-csf (Peprotech, Rocky Hill, NJ). Culture was maintained by replacing half of the medium every 2 or 3 days. On day 12, most of the nonadherent cells had acquired typical dendritic morphology, and these cells were pulsed with peptides (2 μg/ml) for 2 hours at 37° C. ELISpot assay was performed using a Mouse IFN-γ ELISpot BASIC kit (Mabtech AB, Nacka Strand, Sweden) as per the manufacturer's instructions. Freshly isolated splenocytes (5× 10^5 cells) were co-incubated with peptide-pulsed BMDCs (4×10^4 cells) overnight at 37° C. under 5% CO2 conditions in an ELISpot PVDF white plate coated with anti-IFN-γ antibody (clone AN18). Then, IFN-γ secretion was detected using a […] (clone R^4-6A2) and a BCIP/NBT-plus substrate. After leaving the plate to dry, the spot number was counted using a dissection microscope. Spot images were acquired using an ImmunoSpot S6 Ultimate Analyzer (Cellular Technology Limited, Cleveland, OH).

MC38 cells [2] = assay: Co-culture assay for tumor-killing activity, peptide-pulsed target cells; assay type: cell-based, murine; details: for tumor-killing responses, individual epitopes: MC38 pulsed with individual peptide, hexavalent peptide-reactive effector cells
Description: [FIG. 6-1] FIG. 6. Hexavalent vaccination of inducible splice-neoepitopes promotes Compound 1-induced cancer immune responses. A: A schema for the cancer-killing assay. B and C: Representative flow cytometric images showing tumor-killing activity mediated by antigen-elicited effector cells (B) and their quantitative data of annexin V^+/CFSE^+ frequency (C) are indicated (n=3/group). Hexavalent (Kifc1^−, Nf1^−, Acbd4^−, Rfx7^−, Qpct1^−, and Nup153-derived) peptides or an irrelevant Trp2180-188 peptide was used to elicit antigen-reactive effector cells. CFSE-labeled MC38 cells were stimulated with either 0.1% DMSO or hexavalent peptides for 2 hours and then co-cultured with effector cells for 24 hours. Annexin V was used for monitoring early and late apoptotic cell frequencies. *** represents p<0.001. D: For the nontargeting control (NC) or B2M KO clone (n=3/group), annexin V^+/CFSE^+ frequencies in the same experimental condition as (C) are shown. ** represents p<0.01.
[FIG. 7] A: In vitro tumor-killing activity mediated by individual splice-neoantigens. Quantitative data of annexin V^+/CFSE^+ frequencies are shown (n=3/group). CFSE-labeled MC38 cells, with or without IFN-pretreatment, were further stimulated with either 0.1% DMSO, hexavalent peptides, or individual peptides for 2 hours, and then co-cultured with hexavalent peptide-reactive effector cells for 24 hours. Data are shown as the mean±SEM. Experiments were performed at least twice. B: Tumor suppressive effect by hexavalent or individual splice-neoantigen vaccination. Tumor volumes of mice on day 23 are shown. Mice were subcutaneously vaccinated with 100 μg of peptide and 50 μg of Poly(I:C) on days 11 and 18. In groups indicated by (−), 5% DMSO was injected instead of peptide. Compound 1 ([…]) or vehicle control (0.1% DMSO) was intratumorally given once daily. Data are shown as the mean±SEM (n=7/group). Experiments were performed once.
Splenocytes were prepared from mice vaccinated with either hexavalent splice-neoantigens or an irrelevant Tpr2180-188 antigen, and then further stimulated with BMDCs pulsed with the same antigen(s) in the presence of IL-2. Tumor-killing activity was quantified based on the frequency of Annexin V^+/CFSE^+24 hours after co-culture with antigen(s)-elicited effector cells and CFSE-prelabeled target cells. […] As a result, this tumor-killing activity was absent for the B2m KO MC38 cells (FIG. 6-1D).
Splenocytes were prepared from peptide(s)-vaccinated mice inoculated with Poly(I:C) on day 14, as described in the section of “ELISpot assay”. To further elicit antigen-specific CD8^+ T cells, freshly isolated splenocytes were co-cultured with peptide(s)-pulsed bone marrow-derived dendritic cells (BMDCs) in the presence of 10 ng/ml IL-2 (Peprotech) for another 7 days. Culture was maintained by replacing half of the medium every 2 or 3 days. Splenocytes stimulated with BMDCs, as effector cells, were then co-cultured with target cells at an effector target ratio of 5:1 for 24 hours to examine their lytic activity. For the preparation of target cells, in the previous day of co-culture with effector cells, cells were labeled with […] carboxyfluorescein diacetate succinimidyl ester (CFSE; Dojindo) for 10 minutes, and incubated with FBS for additional 10 minutes to stop the labeling reaction. After washing with medium twice, cells were cultured overnight in the presence of 10 ng/ml IFN-γ. The next day, target cells were pulsed with 10 ng/ml peptide(s) for 2 hours prior to co-culture or treated with Compound 1 in the presence of effector cells. After 24 hours of co-culture, cells were stained with annexin V (Biolegend) in an annexin V binding buffer for 15 minutes and subjected to flow cytometry analysis. Effector cell-mediated killing activity was calculated from the frequencies of annexin V^+/CFSEt.

[3] = tested on: splenocytes (CD8^+ and CD4^+ T cells); assay: Ex vivo splenocyte culture assay (antigen-independent T cell activation); assay type: cell-based, mice; details: 24 hours, flow cytometry
MC38 cells [4] = assay: IFN-γ signaling and expression of MHC class I components and PD-L1 in MC38 cells; assay type: cell-based, murine
Description: MHC class I expressed in cancer cells is critical for neoantigen presentation, which is indispensable for CD8^+ T cell-dependent immune surveillance and tumor killing. To investigate whether Compound 1 modulates the neoantigen presentation pathway, first, the effects of Compound 1 on IFN-γ signaling and the expression of MHC class I components, including […] (B2M) and H2-K^b in MC38 cells, were examined because CD8^+ T cell-secreted IFN-γ is a major inducer of MHC class I components. […] In contrast, any changes in the expression of PD-L1 were not detected in host dendritic cells or macrophages. […] However, these alterations were likely not the functional mechanisms through which Compound 1 exerts its antitumor effects (FIGS. 1-2O and 1-2P), as enhanced antitumor effects of Compound 1 were observed when co-administered with αPD-L1.

N=C1NC(=O)/C(=C/c2ccc3c(c2)CCO3)S1 [Compound 2]
splicing alterations of the Kifc1 gene producing peptides containing MALSNKAYV ([1]; MC38 and B16): markedly observed
splicing alterations of the Rfx7 gene producing peptides containing SLLLLYLQL ([1]; all the cancer cell lines): markedly observed
production of splice-neoantigens ([1]; various murine cancer cell lines, RNA-Seq): increases the production of splice-neoantigens

NS(=O)(=O)c1ccc(S(=O)(=O)Nc2cccc3c(Cl)c[nH]c23)cc1 [Indisulam]
splicing events and splice-neoantigens in tumor cells (tumor cells): diversely alters splicing events and generates splice-neoantigens

CC(C)Oc1ccc(-c2c[nH]cc2CN(C)CCN)cc1 [MS-023]
splicing events and splice-neoantigens in tumor cells (tumor cells): diversely alters splicing events and generates splice-neoantigens

KQQELFVLL (listed as Mus musculus) [Qpct1, splice-neoantigen peptide derived from altered splicing of Qpctl]
immunogenicity, IFN-γ ELISpot (CD8^+ T cells): immunogenic

MALSNKAYV (listed as Mus musculus) [Kifc1, splice-neoantigen peptide derived from altered splicing of Kifc1]
immunogenicity, IFN-γ ELISpot (CD8^+ T cells): immunogenic
tumor-killing responses, individual epitopes (MC38 cells [2]): significantly triggered the tumor-killing responses

RNRSHIFPL (listed as Mus musculus) [Nf1, splice-neoantigen peptide derived from altered splicing of Nf1]
immunogenicity, IFN-γ ELISpot (CD8^+ T cells): immunogenic
tumor-killing responses, individual epitopes (MC38 cells [2]): significantly triggered the tumor-killing responses

SILGFTMV (listed as Mus musculus) [Acbd4, splice-neoantigen peptide derived from altered splicing of Acbd4]
immunogenicity, IFN-γ ELISpot (CD8^+ T cells): immunogenic
tumor-killing responses, individual epitopes (MC38 cells [2]): significantly triggered the tumor-killing responses

SLLLLYLQL (listed as Mus musculus) [Rfx7, splice-neoantigen peptide derived from altered splicing of Rfx7]
immunogenicity, IFN-γ ELISpot (CD8^+ T cells): immunogenic
tumor-killing responses, individual epitopes (MC38 cells [2]): significantly triggered the tumor-killing responses

SQPLPNKIGF (listed as Mus musculus) [Nup153, splice-neoantigen peptide derived from altered splicing of Nup153]
immunogenicity, IFN-γ ELISpot (CD8^+ T cells): immunogenic
tumor-killing responses, individual epitopes (MC38 cells [2]): significantly triggered the tumor-killing responses

Tpr2: melanoma antigen peptide, tyrosinase-related protein 2 (TRP2) 180-188; control antigen (SVYDFFVWL; UniProt P29812 180-188, looked up, fragment) [reference compound]
tumor-killing activity of antigen-elicited effector cells (MC38 cells [2]; MC38 cells presenting six splice-neoepitopes, 24 hours co-culture, Annexin V^+/CFSE^+): did not exhibit any response

concanavalin A [concanavalin A (ConA), reference compound]
CD44^+ and CD69^+ marker expressions in CD8^+ and CD4^+ T cells [3]: promoted

B1: IFN-γ: interferon-γ, major inducer of MHC class I components (protein, UniProt P01579 24-161, looked up)
Interferon gamma: QDPYVKEAENLKKYFNAGHSDVADNGTLFLGILKNWKEESDRKIMQSQIVSFYFKLFKNFKDDQSIQKSVETIKEDMNVKFFNSNKKKRDDFEKLTNYSVTDLNVQRKAIHELIQVMAELSPAAKTGKRKRSQMLFRG
phosphorylation of STAT1 and STAT3 and expression of B2M protein (MC38 cells [4]): robustly induced
